Measurements reported in patent US9365571B2, “Piperidino-pyrimidine derivatives for the treatment of viral infections” (Janssen Sciences Ireland UC, priority 2012, dated 2016).

How the values were obtained:
Assay type in all cases: cell-based
PBMC-IFNa = assay: PBMC-IFNa; details: Table IIC; lowest effective concentration; read-out: PBMC-IFNa (LEC)
human TLR8 = assay: TLR8 cellular NFκB-luc reporter assay in transiently transfected HEK293 cells; details: lowest effective concentration, 6 hours incubation
Description: (§1) The ability of compounds to activate human TLR7 and/or TLR8 was assessed in a cellular reporter assay using HEK293 cells transiently transfected with a TLR7 or TLR8 expression vector and NFκB-luc reporter construct. In one instance the TLR expression construct expresses the respective wild type sequence or a mutant sequence comprising a deletion in the second leucine-rich repeat of the TLR.
(§2) Briefly, HEK293 cells were grown in culture medium (DMEM supplemented with 10% FCS and 2 mM Glutamine). For transfection of cells in 10 cm dishes, cells were detached with Trypsin-EDTA, transfected with a mix of CMV-TLR7 or TLR8 plasmid (750 ng), NFκB-luc plasmid (375 ng) and a transfection reagent and incubated overnight at 37° C. in a humidified 5% CO2 atmosphere. Transfected cells were then detached with Trypsin-EDTA, washed in PBS and resuspended in medium to a density of 1.67×10^5 cells/mL. Thirty microliters of cells were then dispensed into each well in 384-well plates, where 10 μL of compound in 4% DMSO was already present. Following 6 hours incubation at 37° C., 5% CO2, the luciferase activity was determined by adding 15 μl of Steady Lite Plus substrate (Perkin Elmer) to each well and readout performed on a ViewLux ultraHTS microplate imager (Perkin Elmer). Dose response curves were generated from measurements performed in quadruplicates. Lowest effective concentrations (LEC) values, defined as the concentration that induces an effect which is at least two fold above the standard deviation of the assay, were determined for each compound.

human TLR7 = assay: TLR7 cellular NFκB-luc reporter assay in transiently transfected HEK293 cells; details: lowest effective concentration, 6 hours incubation
Description: as §1, §2

| SMILES | minimal effective concentration (PBMC-IFNa) | Human TLR8 (LEC, μM) (human TLR8; Table IIC) | Human TLR7 (LEC, μM) (human TLR7; Table IIC) | Human TLR8 (LEC, μM) (human TLR8; Table II B) | Human TLR7 (LEC, μM) (human TLR7; Table II B) | Human TLR8 (LEC, μM) (human TLR8; Table II A) | Human TLR7 (LEC, μM) (human TLR7; Table II A) |
| --- | --- | --- | --- | --- | --- | --- | --- |
| CCCCNc1nc(N)nc2c1CCN(C(=O)C1CCOCC1)C2 [Compound 29] | 8.7 µM | 7.5 µM | >25 µM |  |  |  |  |
| CCCCNc1nc(N)nc2c1CN(C(=O)CC#N)CC2 [Compound 32] | 0.9 µM | 0.6 µM | 7.1 µM |  |  |  |  |
| CCC[C@@H](CCO)Nc1nc(N)nc2c1CN(C(=O)c1ccccc1)CC2 [Compound 39] | 0.5 µM | 4.2 µM | 2.5 µM |  |  |  |  |
| CCCCNc1nc(N)nc2c1CN(C(=O)c1cc(C)on1)CC2 [Compound 34] | 0.2 µM | 0.4 µM | 0.8 µM |  |  |  |  |
| CCCCNc1nc(N)nc2c1CN(C(C)=O)CC2 [Compound 5] |  |  |  | 0.50 µM | 4.90 µM |  |  |
| CCCC[C@@H](CCO)Nc1nc(N)nc2c1CN(C(=O)c1cscn1)CC2 [Compound 46] | 0.2 µM | 3.5 µM | 0.6 µM |  |  |  |  |
| CCCCNc1nc(N)nc2c1CN(C(=O)C(C)C)CC2 [Compound 7] |  |  |  | 1.62 µM | 8.13 µM |  |  |
| CCCCNc1nc(N)nc2c1CN(C(=O)C1CCC1)CC2 [Compound 1] |  |  |  | 0.32 µM | 0.83 µM |  |  |
| CCCCNc1nc(N)nc2c1CCN(C(=O)c1cc(C)n(C)n1)C2 [Compound 10] |  |  |  |  |  | 0.71 µM | 2.04 µM |
| CCCCNc1nc(N)nc2c1CCN(C(=O)c1cscn1)C2 [Compound 14] |  |  |  |  |  | 0.90 µM | 4.43 µM |
| CCC[C@@H](CCO)Nc1nc(N)nc2c1CN(C(=O)c1cscn1)CC2 [Compound 40] | 0.2 µM | 4.5 µM | 2.2 µM |  |  |  |  |
| CCCCNc1nc(N)nc2c1CCN(C(=O)c1cnccn1)C2 [Compound 22] |  |  |  |  |  | 1.37 µM | 9.35 µM |
| CCCCNc1nc(N)nc2c1CCN(C(=O)CC#N)C2 [Compound 23] |  |  |  |  |  | 2.67 µM | 11.62 µM |
| CCCCNc1nc(N)nc2c1CCN(C(C)=O)C2 [Compound 17] |  |  |  |  |  | 0.43 µM | 5.82 µM |
| CCCCNc1nc(N)nc2c1CCN(C(=O)COC)C2 [Compound 16] |  |  |  |  |  | 1.49 µM | 5.37 µM |
| CCCCNc1nc(N)nc2c1CCN(C(=O)[C@H](C)N)C2 [Compound 26] | 0.6 µM | 2.1 µM | 16.8 µM |  |  |  |  |
| CCCCNc1nc(N)nc2c1CCN(C(=O)c1cc(C)on1)C2 [Compound 38] | 0.6 µM | 0.8 µM | 5.2 µM |  |  |  |  |
| CCCCNc1nc(N)nc2c1CCN(C(=O)c1ccncc1)C2 [Compound 28] | 1.9 µM | 2.2 µM | 8.6 µM |  |  |  |  |
| CCCCNc1nc(N)nc2c1CCN(C(=O)c1nccc3ccccc13)C2 [Compound 37] | 1.8 µM | 1.7 µM | 7.2 µM |  |  |  |  |
| CCCCNc1nc(N)nc2c1CCN(C(=O)c1cccs1)C2 [Compound 12] |  |  |  |  |  | 0.36 µM | 2.40 µM |
| CCCCNc1nc(N)nc2c1CCN(C(=O)c1csnn1)C2 [Compound 27] | 1.2 µM | 1.9 µM | >25 µM |  |  |  |  |
| CCCCNc1nc(N)nc2c1CCN(C(=O)[C@@H](N)C(C)C)C2 [Compound 25] | 1.1 µM | 1.8 µM | 20.0 µM |  |  |  |  |
| CCCCNc1nc(N)nc2c1CCN(C(=O)c1csc(N)n1)C2 [Compound 15] |  |  |  |  |  | 1.31 µM | 4.66 µM |
| CCCCNc1nc(N)nc2c1CCN(C(=O)C1CCC1)C2 [Compound 11] |  |  |  |  |  | 0.51 µM | 2.10 µM |
| CCCCNc1nc(N)nc2c1CN(C(=O)C1CCOCC1)CC2 [Compound 31] | 1.3 µM | 0.6 µM | 7.7 µM |  |  |  |  |
| CCCCNc1nc(N)nc2c1CCN(C(=O)Cc1cccs1)C2 [Compound 9] |  |  |  |  |  | 0.46 µM | 1.60 µM |
